Results published in ChEMBL document CHEMBL1145719, “Rigidone, a sesquiterpene o-quinone from the gorgonian Pseudopterogorgia rigida” (J Nat Prod, 1997).

Biological target: T1, Macrophage scavenger receptor types I and II (Homo sapiens, UniProt P21757)
T1 sequence (P21757 whole entry): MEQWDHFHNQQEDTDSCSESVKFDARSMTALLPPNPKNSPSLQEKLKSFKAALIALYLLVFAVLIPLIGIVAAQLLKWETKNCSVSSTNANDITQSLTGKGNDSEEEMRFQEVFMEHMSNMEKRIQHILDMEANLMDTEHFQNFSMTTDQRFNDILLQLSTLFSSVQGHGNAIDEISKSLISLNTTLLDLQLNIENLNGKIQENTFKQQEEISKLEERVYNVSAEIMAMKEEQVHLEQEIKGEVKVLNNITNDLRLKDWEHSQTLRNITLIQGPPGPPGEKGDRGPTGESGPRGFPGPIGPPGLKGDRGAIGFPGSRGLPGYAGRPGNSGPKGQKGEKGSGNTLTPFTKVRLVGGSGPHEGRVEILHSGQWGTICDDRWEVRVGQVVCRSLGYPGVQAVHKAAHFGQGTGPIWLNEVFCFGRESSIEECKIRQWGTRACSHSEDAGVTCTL
Assay: Inhibition of full-length MSR1 transfected in HEK293 cells by fluorimetry
Type: cell-based

CC(C)=CCC[C@H](C)c1c(O)c(O)c(C)c2nc3ccccc3nc12
IC50: 71 µM

CC(C)=CCC[C@H](C)C1=C(O)C=C(C)C(=O)C1=O [RIGIDONE]
IC50: 5.6 µM
